According to patent US20040229268A1, “Method and kit for identifying antibiotic-resistant microorganisms” (priority 2003, published 2004):

System: mecA gene; Staphylococcus ribosomal nucleic acids
Assay: HPA after thermal lysis, base hydrolysis and neutralization (Examples 5-7)
Format: binding, S. aureus
Settings: hybridize 45 minutes at 60° C.
Method: The cultured S. aureus specimens were lysed by suspending 1 μl loops of bacteria in 150 μl of lysis buffer and then incubating at 105° C. for 15 minutes. Next, 100 μl of 2 N LiOH base solution was added and RNA was hydrolyzed by incubating the mixtures at 60° C. for 15 minutes. Hydrolyzed samples were neutralized by the addition of 100 μl of a neutralizing reagent that included 2 N HCl and 100 mM succinate buffer (pH 5.5 prior to acidification with HCl). Specifically hybridized probe was detected by standard HPA, essentially as described in Example 1.
Specimens (1 μl loops of bacteria) were treated and tested essentially as described in Example 5 with the following differences: incubation for lysis was for 15 minutes and incubation for hybridization was for 45 minutes for samples shown in Tables 7-8, while incubation for lysis was for 10 minutes and incubation for hybridization was for 20 minutes for samples shown in Table 9. All of the base-treated solutions were neutralized by the addition of 250 μl of 0.8 N HCl containing 100 mM succinate.
2′-methoxy analogs of the AE-labeled DNA probes were prepared by standard phosphoramidite synthesis using 2′ methoxy phosphoramidite analogs. Additional linker positions, which are indicated by parentheses in Table 11, for probe 2 were also prepared for testing. Deoxy probes and 2′-methoxy probe analogs were tested essentially as described in Example 5, except as noted below. Probes synthesized using 2′-methoxy nucleotide analogs are particularly identified by the “MeO” designations. Brief summaries of the procedures used to obtain the results are appended to the tables.

[1] = Table 10, neutralize 100 μl 2 N HCl containing 200 mM succinate
[2] = Table 11, neutralize 250 μl 0.8 N HCl containing 100 mM succinate

## MeO-probe 1: 2′-methoxy analog of AE-labeled probe 1 (SEQ ID NO:1) (DNA GGTATGTGGAAGTTAGATTGGGATCATAGCG; all 2'-O-methyl, backbone and T or U not given here; acridinium ester label on internal non-nucleotide linker; listed as Staphylococcus aureus)
[1]
  GP1214(Neg) RLU: 2308 RLU
  GP1217(Pos) RLU: 62594 RLU
  Probe alone Avg RLU: 1879 RLU
[2]
  GP1214(Neg) RLU: 975 RLU
  GP1217(Pos) RLU: 33659 RLU
  Probe alone Avg RLU: 779 RLU
